In ChEMBL document CHEMBL1681705, “Optimisation of ITK inhibitors through successive iterative design cycles” (Bioorg Med Chem Lett, 2011):

Assays:
[1] = biological target: Ephrin type-A receptor 4 (Homo sapiens) (UniProt P54764); assay: Inhibition of EphA4 at 1 uM; values are per cent of control
[2] = biological target: Ephrin type-A receptor 2 (Homo sapiens) (UniProt P29317); assay: Inhibition of EphA2 at 1 uM; values are per cent of control
[3] = biological target: T1, Ephrin type-A receptor 1 (Homo sapiens) (UniProt P21709); assay: Inhibition of EphA1 at 0.1 uM; values are per cent of control
T1 sequence (whole entry): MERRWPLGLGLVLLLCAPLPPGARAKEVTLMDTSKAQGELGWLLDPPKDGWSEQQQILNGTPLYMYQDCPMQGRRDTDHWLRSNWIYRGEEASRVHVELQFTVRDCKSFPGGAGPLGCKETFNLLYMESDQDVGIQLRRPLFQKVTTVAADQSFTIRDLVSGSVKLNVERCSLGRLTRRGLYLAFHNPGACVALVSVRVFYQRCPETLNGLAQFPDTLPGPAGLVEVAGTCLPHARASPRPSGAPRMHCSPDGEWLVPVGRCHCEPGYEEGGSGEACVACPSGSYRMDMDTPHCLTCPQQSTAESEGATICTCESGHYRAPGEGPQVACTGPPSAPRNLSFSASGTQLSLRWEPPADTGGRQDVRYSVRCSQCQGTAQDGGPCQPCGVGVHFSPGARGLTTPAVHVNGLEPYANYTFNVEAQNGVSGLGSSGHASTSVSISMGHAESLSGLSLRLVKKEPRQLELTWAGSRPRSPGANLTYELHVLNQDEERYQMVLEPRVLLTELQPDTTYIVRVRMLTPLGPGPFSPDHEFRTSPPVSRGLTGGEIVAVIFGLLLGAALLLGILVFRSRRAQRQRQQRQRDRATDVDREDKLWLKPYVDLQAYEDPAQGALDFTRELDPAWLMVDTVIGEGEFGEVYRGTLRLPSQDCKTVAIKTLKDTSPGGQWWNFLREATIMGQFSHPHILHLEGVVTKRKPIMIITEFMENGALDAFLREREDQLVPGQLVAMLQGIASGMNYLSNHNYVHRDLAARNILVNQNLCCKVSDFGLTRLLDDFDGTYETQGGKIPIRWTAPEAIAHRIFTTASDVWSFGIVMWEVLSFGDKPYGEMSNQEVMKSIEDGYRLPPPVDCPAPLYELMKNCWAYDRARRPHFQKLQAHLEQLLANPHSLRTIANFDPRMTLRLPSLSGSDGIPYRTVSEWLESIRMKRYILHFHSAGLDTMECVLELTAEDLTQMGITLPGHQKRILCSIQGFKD

[4] = biological target: T2, Ephrin type-B receptor 4 (Homo sapiens) (UniProt P54760); assay: Inhibition of EphB4 at 1 uM; values are per cent of control
T2 sequence (whole entry): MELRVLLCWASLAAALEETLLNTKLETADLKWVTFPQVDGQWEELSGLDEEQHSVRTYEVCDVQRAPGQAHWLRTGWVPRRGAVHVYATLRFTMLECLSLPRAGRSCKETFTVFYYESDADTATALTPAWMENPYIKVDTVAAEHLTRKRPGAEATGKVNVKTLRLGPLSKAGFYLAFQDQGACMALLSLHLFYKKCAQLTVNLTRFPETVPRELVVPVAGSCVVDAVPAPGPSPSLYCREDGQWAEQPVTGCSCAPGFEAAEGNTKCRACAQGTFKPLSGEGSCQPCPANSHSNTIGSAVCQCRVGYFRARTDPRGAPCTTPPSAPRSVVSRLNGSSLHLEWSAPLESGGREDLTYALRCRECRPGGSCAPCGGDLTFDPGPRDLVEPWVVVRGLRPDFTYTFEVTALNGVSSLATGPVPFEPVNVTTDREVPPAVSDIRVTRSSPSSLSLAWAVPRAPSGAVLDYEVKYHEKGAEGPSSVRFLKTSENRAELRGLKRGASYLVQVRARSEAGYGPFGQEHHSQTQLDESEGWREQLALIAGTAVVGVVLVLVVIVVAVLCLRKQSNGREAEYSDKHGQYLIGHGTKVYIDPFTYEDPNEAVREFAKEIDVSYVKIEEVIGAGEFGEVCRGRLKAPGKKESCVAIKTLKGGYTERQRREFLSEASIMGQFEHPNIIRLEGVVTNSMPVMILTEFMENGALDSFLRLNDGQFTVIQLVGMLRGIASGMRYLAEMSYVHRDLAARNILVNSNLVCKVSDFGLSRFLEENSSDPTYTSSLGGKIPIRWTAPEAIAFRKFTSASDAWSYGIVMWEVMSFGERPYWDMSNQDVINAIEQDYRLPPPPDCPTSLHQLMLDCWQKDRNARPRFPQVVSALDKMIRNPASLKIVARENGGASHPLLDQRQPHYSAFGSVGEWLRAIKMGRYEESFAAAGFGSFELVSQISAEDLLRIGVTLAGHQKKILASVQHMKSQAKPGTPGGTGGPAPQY

[5] = biological target: T3, Aurora kinase A (Homo sapiens) (UniProt O14965); assay: Inhibition of aurora-A at 1 uM; values are per cent of control
T3 sequence (whole entry): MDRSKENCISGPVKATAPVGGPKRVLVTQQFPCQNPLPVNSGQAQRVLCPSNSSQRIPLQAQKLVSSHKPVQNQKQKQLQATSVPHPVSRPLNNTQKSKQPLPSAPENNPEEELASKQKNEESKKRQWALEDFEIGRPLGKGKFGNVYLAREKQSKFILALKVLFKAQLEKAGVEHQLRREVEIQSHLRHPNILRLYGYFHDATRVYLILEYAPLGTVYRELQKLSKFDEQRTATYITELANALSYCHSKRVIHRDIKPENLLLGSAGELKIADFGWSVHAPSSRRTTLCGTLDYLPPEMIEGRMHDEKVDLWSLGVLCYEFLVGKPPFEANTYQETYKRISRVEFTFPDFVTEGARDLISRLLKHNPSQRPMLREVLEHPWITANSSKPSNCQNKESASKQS

[6] = biological target: Mast/stem cell growth factor receptor Kit (Homo sapiens) (UniProt P10721); assay: Inhibition of c-Kit at 0.1 uM; values are per cent of control
Sequence of Mast/stem cell growth factor receptor Kit (Homo sapiens) (P10721 whole entry): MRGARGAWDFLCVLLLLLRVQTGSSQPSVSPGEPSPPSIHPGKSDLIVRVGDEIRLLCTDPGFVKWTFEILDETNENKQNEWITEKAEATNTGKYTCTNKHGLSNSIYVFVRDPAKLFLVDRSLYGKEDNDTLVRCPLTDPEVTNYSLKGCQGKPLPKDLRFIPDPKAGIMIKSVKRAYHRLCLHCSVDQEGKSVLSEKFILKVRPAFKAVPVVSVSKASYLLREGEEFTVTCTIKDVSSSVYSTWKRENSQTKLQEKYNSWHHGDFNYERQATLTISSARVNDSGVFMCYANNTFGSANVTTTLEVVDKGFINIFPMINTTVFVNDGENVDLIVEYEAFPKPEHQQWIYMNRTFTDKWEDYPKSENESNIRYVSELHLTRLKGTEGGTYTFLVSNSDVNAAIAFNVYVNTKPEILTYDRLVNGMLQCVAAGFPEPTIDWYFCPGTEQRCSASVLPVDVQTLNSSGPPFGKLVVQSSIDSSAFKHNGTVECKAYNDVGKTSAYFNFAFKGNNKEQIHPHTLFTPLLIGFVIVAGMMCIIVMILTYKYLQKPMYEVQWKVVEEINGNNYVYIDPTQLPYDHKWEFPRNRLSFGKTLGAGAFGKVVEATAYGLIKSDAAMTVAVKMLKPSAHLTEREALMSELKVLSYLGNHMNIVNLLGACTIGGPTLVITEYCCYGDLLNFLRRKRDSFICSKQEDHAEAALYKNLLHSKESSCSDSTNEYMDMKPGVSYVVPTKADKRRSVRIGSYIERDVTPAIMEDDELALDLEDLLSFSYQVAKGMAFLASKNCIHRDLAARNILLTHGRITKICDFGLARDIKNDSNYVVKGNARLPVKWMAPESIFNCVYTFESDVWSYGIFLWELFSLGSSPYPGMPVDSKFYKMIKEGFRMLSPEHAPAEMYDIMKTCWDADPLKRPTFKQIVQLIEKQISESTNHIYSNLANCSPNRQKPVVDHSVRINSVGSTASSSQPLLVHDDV

[7] = biological target: Fibroblast growth factor receptor 3 (Homo sapiens) (UniProt P22607); assay: Inhibition of FGFR3 at 1 uM; values are per cent of control
Sequence of Fibroblast growth factor receptor 3 (Homo sapiens) (P22607 23-806 limits assumed): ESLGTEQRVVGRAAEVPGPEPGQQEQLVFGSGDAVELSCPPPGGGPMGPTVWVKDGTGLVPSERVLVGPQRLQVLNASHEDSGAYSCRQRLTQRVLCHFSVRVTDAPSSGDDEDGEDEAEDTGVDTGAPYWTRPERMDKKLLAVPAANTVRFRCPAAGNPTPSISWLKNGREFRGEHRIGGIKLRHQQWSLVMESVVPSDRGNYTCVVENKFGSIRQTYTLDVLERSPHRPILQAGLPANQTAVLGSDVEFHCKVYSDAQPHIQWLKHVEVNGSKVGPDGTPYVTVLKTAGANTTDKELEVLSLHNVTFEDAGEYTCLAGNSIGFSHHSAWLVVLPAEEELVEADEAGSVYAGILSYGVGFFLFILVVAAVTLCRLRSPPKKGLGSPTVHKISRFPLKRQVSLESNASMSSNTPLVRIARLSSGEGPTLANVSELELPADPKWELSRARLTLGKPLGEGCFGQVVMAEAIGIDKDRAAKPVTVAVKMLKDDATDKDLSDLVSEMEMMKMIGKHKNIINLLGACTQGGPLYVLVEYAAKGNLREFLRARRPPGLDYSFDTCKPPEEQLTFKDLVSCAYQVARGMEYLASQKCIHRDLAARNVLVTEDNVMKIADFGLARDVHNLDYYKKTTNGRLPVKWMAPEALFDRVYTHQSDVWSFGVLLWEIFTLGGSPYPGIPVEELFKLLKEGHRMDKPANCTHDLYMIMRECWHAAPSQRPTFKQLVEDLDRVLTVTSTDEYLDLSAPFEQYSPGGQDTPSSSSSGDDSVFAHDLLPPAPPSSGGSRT

[8] = biological target: ALK tyrosine kinase receptor (Homo sapiens) (UniProt Q9UM73); assay: Inhibition of ALK at 1 uM; values are per cent of control

Sequence of Ephrin type-A receptor 4 (Homo sapiens) (P54764 whole entry): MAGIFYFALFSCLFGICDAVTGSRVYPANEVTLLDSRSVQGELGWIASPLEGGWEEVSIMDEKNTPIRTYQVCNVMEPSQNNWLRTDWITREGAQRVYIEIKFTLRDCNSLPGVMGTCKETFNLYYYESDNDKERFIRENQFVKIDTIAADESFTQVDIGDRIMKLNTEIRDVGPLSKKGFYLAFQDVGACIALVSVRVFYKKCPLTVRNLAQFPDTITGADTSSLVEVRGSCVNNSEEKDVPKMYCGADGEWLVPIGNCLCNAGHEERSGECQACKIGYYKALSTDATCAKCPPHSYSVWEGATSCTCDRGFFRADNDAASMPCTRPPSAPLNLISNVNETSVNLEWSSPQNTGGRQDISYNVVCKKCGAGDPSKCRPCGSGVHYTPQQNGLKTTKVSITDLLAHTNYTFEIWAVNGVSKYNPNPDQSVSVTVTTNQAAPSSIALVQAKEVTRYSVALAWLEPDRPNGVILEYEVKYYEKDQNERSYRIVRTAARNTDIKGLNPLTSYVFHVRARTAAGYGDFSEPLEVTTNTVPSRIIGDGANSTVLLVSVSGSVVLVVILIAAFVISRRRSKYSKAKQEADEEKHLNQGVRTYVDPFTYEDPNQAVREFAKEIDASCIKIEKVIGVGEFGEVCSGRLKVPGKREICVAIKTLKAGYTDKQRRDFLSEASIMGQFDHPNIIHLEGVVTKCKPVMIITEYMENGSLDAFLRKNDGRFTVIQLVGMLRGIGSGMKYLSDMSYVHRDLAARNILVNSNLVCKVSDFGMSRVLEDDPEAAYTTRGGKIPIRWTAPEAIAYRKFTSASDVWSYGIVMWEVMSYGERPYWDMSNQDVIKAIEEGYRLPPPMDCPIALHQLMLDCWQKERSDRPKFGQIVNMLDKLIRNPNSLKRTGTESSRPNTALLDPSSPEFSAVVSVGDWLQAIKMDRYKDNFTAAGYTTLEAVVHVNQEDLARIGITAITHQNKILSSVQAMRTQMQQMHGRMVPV
Sequence of Ephrin type-A receptor 2 (Homo sapiens) (P29317 whole entry): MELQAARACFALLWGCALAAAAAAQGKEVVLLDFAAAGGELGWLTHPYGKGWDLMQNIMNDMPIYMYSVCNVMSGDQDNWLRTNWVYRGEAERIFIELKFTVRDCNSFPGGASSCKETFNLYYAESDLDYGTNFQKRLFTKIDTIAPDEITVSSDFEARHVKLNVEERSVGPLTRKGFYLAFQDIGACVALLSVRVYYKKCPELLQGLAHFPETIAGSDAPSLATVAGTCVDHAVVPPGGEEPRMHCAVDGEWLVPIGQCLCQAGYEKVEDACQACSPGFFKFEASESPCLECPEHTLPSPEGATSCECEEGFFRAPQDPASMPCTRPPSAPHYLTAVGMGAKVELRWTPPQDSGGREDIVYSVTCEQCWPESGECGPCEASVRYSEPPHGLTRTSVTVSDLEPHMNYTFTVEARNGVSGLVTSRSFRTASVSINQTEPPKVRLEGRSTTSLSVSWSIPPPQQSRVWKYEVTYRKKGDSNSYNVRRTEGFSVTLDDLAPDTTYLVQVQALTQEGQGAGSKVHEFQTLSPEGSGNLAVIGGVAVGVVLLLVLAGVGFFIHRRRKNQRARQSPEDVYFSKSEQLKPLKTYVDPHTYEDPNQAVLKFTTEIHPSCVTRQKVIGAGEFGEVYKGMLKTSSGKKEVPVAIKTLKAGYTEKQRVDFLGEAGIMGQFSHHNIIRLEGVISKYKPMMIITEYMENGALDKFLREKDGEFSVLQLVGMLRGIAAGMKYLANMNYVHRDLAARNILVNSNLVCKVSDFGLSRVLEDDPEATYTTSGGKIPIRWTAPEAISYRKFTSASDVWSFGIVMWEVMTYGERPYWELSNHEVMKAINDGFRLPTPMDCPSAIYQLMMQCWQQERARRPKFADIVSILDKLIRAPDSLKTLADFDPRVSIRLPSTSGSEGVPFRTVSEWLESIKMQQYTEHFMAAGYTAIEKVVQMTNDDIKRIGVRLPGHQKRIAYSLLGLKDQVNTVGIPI

| SMILES | residual activity [1] | residual activity [2] | residual activity [3] | residual activity [4] | residual activity [5] | residual activity [6] | residual activity [7] | residual activity [8] |
| --- | --- | --- | --- | --- | --- | --- | --- | --- |
| Cc1ccc2cc(-c3n[nH]c4ccc(NC5CCNC5)cc34)[nH]c2c1 (stereo unspecified) | 72% | 13% | 39% | 62% | 0% | 92% | 1% | 5% |
| Cc1ccc2cc(-c3n[nH]c4ccc(NC5CCN(Cc6ccccc6)CC5)cc34)[nH]c2c1 | 68% | 7% | 64% | 92% | -7% | 143% | -3% | 4% |
